Measured values: the NIST ThermoML archive (doi:10.1021/je050261u)
Numbers after ± are expanded uncertainties.

Assay: xn = mol fraction of the nth substance listed
Conditions: Liquid, Vibrating tube method

CCCCCCC [heptane] + CCO
mass density [kg/m3]
Conditions | x2 = 0 | x2 = 0.125 | x2 = 0.25 | x2 = 0.375 | x2 = 0.5 | x2 = 0.625 | x2 = 0.75 | x2 = 0.875
303.15 K, 15000 kPa | – | – | – | – | 715.9 ± 1.1 | 727.4 ± 1.1 | 742.7 ± 1 | 763.3 ± 1
303.15 K, 20000 kPa | 692.8 ± 1.1 | 697.8 ± 1.1 | 703.4 ± 1.1 | 710.7 ± 1.1 | 720 ± 1.1 | 731.4 ± 1.1 | 746.7 ± 1.1 | 767.3 ± 1
303.15 K, 25000 kPa | 696.8 ± 1.1 | 701.7 ± 1.1 | 707.3 ± 1.1 | 714.7 ± 1.1 | 723.9 ± 1.1 | 735.4 ± 1.1 | 750.6 ± 1.1 | 771.1 ± 1.1
303.15 K, 30000 kPa | 700.3 ± 1.1 | 705.3 ± 1.1 | 710.9 ± 1.1 | 718.3 ± 1.1 | 727.5 ± 1.1 | 739 ± 1.1 | 754.2 ± 1.1 | 774.7 ± 1.1
303.15 K, 35000 kPa | 703.7 ± 1.1 | 708.9 ± 1.1 | 714.4 ± 1.1 | 721.8 ± 1.1 | 731.1 ± 1.1 | 742.6 ± 1.1 | 757.7 ± 1.1 | 778.2 ± 1.1
303.15 K, 40000 kPa | 707.1 ± 1.2 | 712.3 ± 1.2 | 717.9 ± 1.1 | 725.3 ± 1.1 | 734.5 ± 1.1 | 746 ± 1.1 | 761.2 ± 1.1 | 781.5 ± 1.1
303.15 K, 45000 kPa | 710.2 ± 1.2 | 715.4 ± 1.2 | 721.1 ± 1.2 | 728.5 ± 1.2 | 737.7 ± 1.1 | 749.2 ± 1.1 | 764.4 ± 1.1 | 784.8 ± 1.1
303.15 K, 50000 kPa | 713.4 ± 1.2 | 718.5 ± 1.2 | 724.2 ± 1.2 | 731.6 ± 1.2 | 740.8 ± 1.2 | 752.2 ± 1.2 | 767.5 ± 1.1 | 787.9 ± 1.1
303.15 K, 55000 kPa | 716.4 ± 1.2 | 721.4 ± 1.2 | 727.3 ± 1.2 | 734.7 ± 1.2 | 743.9 ± 1.2 | 755.3 ± 1.2 | 770.6 ± 1.2 | 791 ± 1.1
303.15 K, 60000 kPa | 719.2 ± 1.3 | 724.4 ± 1.2 | 730.2 ± 1.2 | 737.5 ± 1.2 | 746.9 ± 1.2 | 758.3 ± 1.2 | 773.5 ± 1.2 | 793.9 ± 1.1
303.15 K, 65000 kPa | 722 ± 1.3 | 727.2 ± 1.3 | 733 ± 1.3 | 740.4 ± 1.2 | 749.7 ± 1.2 | 761.1 ± 1.2 | 776.4 ± 1.2 | 796.7 ± 1.2
313.15 K, 100 kPa | 666.4 ± 1 | 670.7 ± 1 | 676 ± 1 | 683.3 ± 1 | 692.6 ± 1 | 704.2 ± 1 | 719.8 ± 1 | 740.8 ± 1
313.15 K, 5000 kPa | 671.6 ± 1 | 676.1 ± 1 | 681.4 ± 1 | 688.7 ± 1 | 697.9 ± 1 | 709.5 ± 1 | 724.9 ± 1 | 745.8 ± 1
313.15 K, 10000 kPa | 676.5 ± 1.1 | 681.1 ± 1.1 | 686.4 ± 1.1 | 693.6 ± 1 | 702.9 ± 1 | 714.3 ± 1 | 729.8 ± 1 | 750.5 ± 1
313.15 K, 15000 kPa | 681 ± 1.1 | 685.6 ± 1.1 | 690.9 ± 1.1 | 698.2 ± 1.1 | 707.5 ± 1.1 | 718.9 ± 1.1 | 734.3 ± 1 | 755 ± 1
313.15 K, 20000 kPa | 685.3 ± 1.1 | 689.9 ± 1.1 | 695.3 ± 1.1 | 702.6 ± 1.1 | 711.9 ± 1.1 | 723.3 ± 1.1 | 738.5 ± 1.1 | 759.1 ± 1.1
313.15 K, 25000 kPa | 689.4 ± 1.1 | 694 ± 1.1 | 699.4 ± 1.1 | 706.7 ± 1.1 | 716 ± 1.1 | 727.4 ± 1.1 | 742.6 ± 1.1 | 763.1 ± 1.1
313.15 K, 30000 kPa | 693.3 ± 1.1 | 697.9 ± 1.1 | 703.4 ± 1.1 | 710.5 ± 1.1 | 719.9 ± 1.1 | 731.3 ± 1.1 | 746.5 ± 1.1 | 766.9 ± 1.1
